Measured values taken from patent publication US7638503B2, “Small molecule stimulators of neuronal growth” (California Institute of Technology, priority 2004, dated 2009).

Assays:
[1] = test system: primary hippocampal neurons; experiment: Hippocampal neuronal growth: neurite outgrowth of cultured primary hippocampal neurons, anti-tau immunostaining, confocal microscopy; format: cell-based, Sprague-Dawley rats; details: 48 h
Protocol: In certain embodiments, the activity of the compounds provided herein to modulate neuronal growth, can be tested using cultured primary hippocampal neurons. Primary hippocampal neurons are cultured on poly-DL-ornithine-coated coverslips with or without each compound. After 48 h, the neurons are fixed, immunostained with anti-tau antibodies, and examined by confocal fluorescence microscopy. The effect of sulfated tetrasaccharide CS-E on neuronal morphology and growth is illustrated in FIGS. 1A-B. The number of neurites emanating from the cell body was enhanced, and the growth of the major extension was stimulated by 39.3±3.6% relative to the poly-DL-omithine control.
Hippocampal Neuronal Cultures. Hippocampal neuronal cultures were prepared using a modified version of the Goslin and Banker protocol (Goslin, K.; Banker, G. In Culturing Nerve Cells; Banker, G.; Goslin, K.; Eds.; MIT Press: Cambridge, Mass., 1991; pp 251-281). Embryos at the E18 stage were obtained from timed-pregnant Sprague-Dawley rats, and the hippocampus from each embryo was dissected. All the hippocampi from one preparation were transferred to a 15 mL conical tube containing 4.5 mL of ice-cold Calcium and Magnesium Free-Hank's Balanced Salt Solution (CMF-HBSS) (GIBCO). Trypsin (2.5%, no EDTA; GIBCO) was added to 5 mL, and the tissue was digested for 15 min at 37° C. The trypsin solution was removed and the tissue rinsed with 5 mL of CMF-HBSS three times. The tissue was then dissociated in 1 mL of CMF-HBSS by passing through a P1000 pipet tip twenty times. The cells were counted with a hemacytometer and plated on glass coverslips at 80 cells/mm2 and cultivated in minimal Eagle's Medium (MEM) (GIBCO) supplemented with the N2 mixture (GIBCO) and 0.1 mM pyruvate. The cultures were maintained in 5% CO2 at 37° C. Glass coverslips were coated as described by Clement et. al. (Clement, A.M.; Nadanaka, S.; Masayama, K.; Mandl, C.; Sugahara, K.; Faissner, A. J. Biol. Chem. 1998, 273, 28444-28453) Briefly, coverslips were precoated with 0.015 mg/mL poly-DL-ornithine (SIGMA) for 1 h at 37° C./5% CO2, washed three times with double distilled H2O, and coated with 0.5 mg/mL of compounds 1-3 in PBS overnight at 37° C./5% CO2. The coverslips were then washed three times with PBS and flooded with MEM+N2 media.
Immunocytochemistry of Hippocampal Neuronal Cultures. After 48 h in culture, hippocampal neurons on coverslips were used for immunostaining. […]
Morphometric Analysis. For quantitative analysis, 50 cells were analyzed per coverslip. Only cells with neurites longer than one cell body diameter were counted. The length of the longest neurite from stained cells was measured using N1H Image 1.52 software. […]

[2] = test system: dorsal root ganglion (DRG) neurons; experiment: Outgrowth of cultured dorsal root ganglion (DRG) neurons from the spinal cord; format: cell-based
From the text: (§1) Effect of disaccharide CS-E, tetrasaccharides CS-E, and unsulfated tetrasaccharide on the growth of dopaminergic neurons as well as dorsal root ganglion (DRG) neurons from the spinal cord is illustrated in FIGS. 2A-B and 4A-B, respectively. In certain embodiments, the CS-E tetrasaccharide promoted the outgrowth of cultured dopaminergic and DRG neurons by 30-40% relative to the untreated controls. FIGS. 5 and 7 illustrate binding of tetrasaccharides CS-E, CS-C and disaccharide CS-E to tumor necrosis factor-α and midkine, respectively.

[3] = test system: dopaminergic neurons; experiment: Outgrowth of cultured dopaminergic neurons; format: cell-based
From the text: as §1

[4] = primary hippocampal neurons on poly-DL-ornithine-coated coverslips with compound

Compound	growth of the major extension stimulated relative to the poly-DL-ornithine control ([1]; primary hippocampal neurons on poly-DL-ornithine-coated coverslips with compound (0.5 mg/mL coating))	number of neurites emanating from the cell body [1, 4]	outgrowth promoted relative to the untreated controls [2]	outgrowth promoted relative to the untreated controls [3]	effect on neuronal outgrowth [1, 4]
C=CCO[C@@H]1O[C@H](COS(=O)(=O)[O-])[C@H](OS(=O)(=O)[O-])[C@H](O[C@@H]2O[C@H](C(=O)[O-])[C@@H](O[C@@H]3O[C@H](COS(=O)(=O)[O-])[C@H](OS(=O)(=O)[O-])[C@H](O[C@@H]4O[C@H](C(=O)[O-])[C@@H](O)[C@H](O)[C@H]4O)[C@H]3NC(C)=O)[C@H](O)[C@H]2O)[C@H]1NC(C)=O.[Na+].[Na+].[Na+].[Na+].[Na+].[Na+] [sulfated tetrasaccharide CS-E, Allyl (sodium β-D-glucopyranosyluronate)-(1→3)-(4,6-di-O-sodiumsulfonato-2-deoxy-2-acetamido-β-D-galactopyranosyl)-(1→4)-(sodium β-D-glucopyranosyluronate)-(1→3)-4,6-di-O-sodium sulfonato-2-deoxy-2-acetamido-β-D-galactopyranoside]	39.3±3.6%	enhanced	30-40%	30-40%	
Allyl (sodium β-D-glucopyranosyluronate)-(1→3)-4,6-di-O-sodium sulfonato-2-deoxy-2-acetamido-β-D-galactopyranoside [sulfated disaccharide]					no significant effect
C=CCO[C@@H]1O[C@H](CO)[C@H](O)[C@H](O[C@@H]2O[C@H](C(=O)[O-])[C@@H](O[C@@H]3O[C@H](CO)[C@H](O)[C@H](O[C@@H]4O[C@H](C(=O)[O-])[C@@H](O)[C@H](O)[C@H]4O)[C@H]3NC(C)=O)[C@H](O)[C@H]2O)[C@H]1NC(C)=O.[Na+].[Na+] [unsulfated tetrasaccharide, Allyl (sodium β-D-glucopyranosyluronate)-(1→3)-(2-deoxy-2-acetamido-β-D-galactopyranosyl)-(1→4)-(sodium β-D-glucopyranosyluronate)-(1→3)-2-deoxy-2-acetamido-β-D-galactopyranoside]					no significant effect
